Results on one compound are retold here after ChEMBL document CHEMBL5346971, “Discovery of the First Irreversible HDAC6 Isoform Selective Inhibitor with Potent Anti-Multiple Myeloma Activity” (J Med Chem, 2023).

Activity calls are given as the source filed them.

Series [1] deals with T1, Protein deacetylase HDAC6 (Homo sapiens, UniProt Q9UBN7).
T1 sequence (Q9UBN7 whole entry): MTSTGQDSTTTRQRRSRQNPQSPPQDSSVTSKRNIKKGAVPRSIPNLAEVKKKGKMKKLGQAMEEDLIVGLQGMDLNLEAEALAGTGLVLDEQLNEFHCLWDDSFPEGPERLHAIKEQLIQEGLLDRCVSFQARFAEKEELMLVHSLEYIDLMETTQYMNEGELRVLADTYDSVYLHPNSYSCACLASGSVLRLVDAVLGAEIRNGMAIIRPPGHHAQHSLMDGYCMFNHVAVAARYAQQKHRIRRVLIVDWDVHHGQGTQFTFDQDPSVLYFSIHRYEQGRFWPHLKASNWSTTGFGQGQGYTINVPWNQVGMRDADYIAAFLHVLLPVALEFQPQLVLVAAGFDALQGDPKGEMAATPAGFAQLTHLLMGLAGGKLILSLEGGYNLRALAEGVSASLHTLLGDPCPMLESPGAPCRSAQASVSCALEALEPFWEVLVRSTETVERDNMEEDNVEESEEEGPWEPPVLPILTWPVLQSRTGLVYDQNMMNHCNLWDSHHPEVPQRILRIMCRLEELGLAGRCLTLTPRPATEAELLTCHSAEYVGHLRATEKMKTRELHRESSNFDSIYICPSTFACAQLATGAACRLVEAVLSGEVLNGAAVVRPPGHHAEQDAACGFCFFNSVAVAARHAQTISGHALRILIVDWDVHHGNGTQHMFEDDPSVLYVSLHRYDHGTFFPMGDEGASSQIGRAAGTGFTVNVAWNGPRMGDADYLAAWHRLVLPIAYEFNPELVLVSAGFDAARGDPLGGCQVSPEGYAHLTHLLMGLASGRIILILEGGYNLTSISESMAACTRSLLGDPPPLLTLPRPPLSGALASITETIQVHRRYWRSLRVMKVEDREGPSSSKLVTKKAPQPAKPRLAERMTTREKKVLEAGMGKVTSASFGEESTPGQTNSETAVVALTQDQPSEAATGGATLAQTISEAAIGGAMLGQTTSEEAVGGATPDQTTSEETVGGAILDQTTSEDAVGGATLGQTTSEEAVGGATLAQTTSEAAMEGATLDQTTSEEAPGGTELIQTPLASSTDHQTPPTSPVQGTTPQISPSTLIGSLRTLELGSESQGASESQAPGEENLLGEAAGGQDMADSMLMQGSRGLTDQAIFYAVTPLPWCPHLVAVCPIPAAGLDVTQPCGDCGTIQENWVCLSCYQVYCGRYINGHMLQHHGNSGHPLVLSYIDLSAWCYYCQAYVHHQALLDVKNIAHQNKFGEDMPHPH
As to the kind of experiment: Inhibition of N-terminal GST-tagged human full length recombinant HDAC6 (1 to 1215 residues) expressed in Sf9 cells using Boc-Lys(acetyI)-AMC as substrate preincubated with enzyme for 1 hr followed by substrate addition and measured after 30 mins by fluorescence based analysis.

The subject of series [2] is U-266. In words: Antiproliferative activity against human U-266 cells assessed as inhibition of cell proliferation incubated for 48 hrs by CCK8 assay. Format: functional, cell-based. The settings on record: U-266, 48 h. Background: Tetrazolium assays rely on reduction of a dye to a coloured formazan, in cell work by metabolically active cells.
Series [3] can be described thus: Metabolic stability of the compound in rat liver microsomes assessed as parent compound remaining measured after 60 mins in presence of NADPH by LC-MS/MS analysis. Type of series: ADME, Microsome. The conditions noted are these: read-out: Stability.
Series [4] concerns RPMI-8226. As to the kind of experiment: Antiproliferative activity against human RPMI-8226 cells assessed as inhibition of cell proliferation incubated for 48 hrs by CCK8 assay. The settings on record: RPMI-8226, 48 h. Type of series: functional, cell-based.
Series [5] concerns RPMI-8226. In words: Antitumor activity against human RPMI-8226 cells xenografted in NCG mouse assessed as tumor growth inhibition at 10 ug administered intratumorally every 2 days by vernier caliper analysis. The settings on record: dose 10 µg; route it(Intratumoral). Format: functional. (In general: In xenograft studies the graft and the host belong to different species.)
Series [6] can be described thus: Metabolic stability of the compound in human liver microsomes assessed as parent compound remaining measured after 60 mins in presence of NADPH by LC-MS/MS analysis. The settings on record: read-out: Stability. Type of series: ADME, Microsome. A general note: Liver microsomes are a subcellular fraction often used to study metabolism.
For series [7], the system named is RPMI-8226. In words: Induction of apoptosis in human RPMI-8226 cells assessed as proportion of early apoptotic cells at 0.5 uM incubated for 24 hrs by AnnexinV-FITC/PI staining based flow cytometry (reference value: 10.63%). Format: functional, cell-based.
A short description of series [8]: Half-life in rat liver microsomes in presence of NADPH by LC-MS/MS analysis. Format: ADME, Microsome.
Series [9] in a line: Intrinsic clearance in rat liver microsomes in presence of NADPH by LC-MS/MS analysis. Type of series: ADME, Microsome. The settings on record: read-out: CLH.
Series [10] concerns MM1.S. As to the kind of experiment: Antiproliferative activity against human MM1.S cells assessed as inhibition of cell proliferation incubated for 48 hrs by CCK8 assay. Format: functional, cell-based.
The target in series [11] is T2, Histone deacetylase 8 (Homo sapiens, UniProt Q9BY41).
T2 sequence (Q9BY41 whole entry): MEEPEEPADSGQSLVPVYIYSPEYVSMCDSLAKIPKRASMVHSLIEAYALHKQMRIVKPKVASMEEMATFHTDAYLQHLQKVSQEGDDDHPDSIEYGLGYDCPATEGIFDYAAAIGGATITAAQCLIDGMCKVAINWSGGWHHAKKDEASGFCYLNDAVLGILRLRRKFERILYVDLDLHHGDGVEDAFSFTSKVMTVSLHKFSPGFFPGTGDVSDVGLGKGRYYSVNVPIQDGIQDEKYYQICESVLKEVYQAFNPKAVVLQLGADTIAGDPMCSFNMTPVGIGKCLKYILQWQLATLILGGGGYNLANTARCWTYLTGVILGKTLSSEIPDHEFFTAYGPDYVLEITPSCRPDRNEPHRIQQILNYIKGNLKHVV
As to the kind of experiment: Inhibition of C-terminal His-tagged human full length recombinant HDAC8 (1 to 377 residues) expressed in Sf9 cells using Boc-Lys(trifluoroacety1)-AMC as substrate preincubated with enzyme for 1 hr followed by substrate addition and measured after 30 mins by fluorescence based analysis.

In series [12] the target is Histone deacetylase 9 (Homo sapiens, UniProt Q9UKV0). As to the kind of experiment: Inhibition of C-terminal His-tagged human recombinant HDAC9 (604 to 1066 residues) expressed in baclovirus-infected Sf9 cells using Boc-Lys(trifluoroacety1)-AMC as substrate preincubated with enzyme for 1 hr followed by substrate addition and measured after 30 mins by fluorescence based analysis.

Series [13] relates to RPMI-8226. As to the kind of experiment: Induction of apoptosis in human RPMI-8226 cells assessed as proportion of late apoptotic cells at 0.1 uM incubated for 24 hrs by AnnexinV-FITC/PI staining based flow cytometry (reference value: 4.18%). Format: functional, cell-based.
Series [14] concerns the target Class 1 histone deacetylase (Homo sapiens) (UniProt Q13547+O15379+Q92769+Q9BY41). In words: Irreversible inhibition of class 1 HDAC in human A549 cells assessed as acetyl histone H3 level at 0.4 uM incubated for 5 hrs followed by drug wash-out and measured immediately after drug wash-out by western blot analysis relative to control. Format: cell-based.
Series [15] deals with T3, Protein deacetylase HDAC6 (Homo sapiens) (UniProt Q9UBN7).
T3 sequence (whole entry): T1 sequence (Q9UBN7 whole entry)
The settings on record: A549, dose 80.0 nM, time 5.0 hrs.

A short description of series [16]: Effect on HDAC6 protein expression in human A549 cells assessed as change in HDAC6 protein expression at 0.4 uM incubated for 5 hrs followed by drug wash-out for 6 hrs by western blot analysis relative to control. Type of series: functional.

Chain of Class 1 histone deacetylase (Homo sapiens) (O15379 whole entry, looked up, one chain of several): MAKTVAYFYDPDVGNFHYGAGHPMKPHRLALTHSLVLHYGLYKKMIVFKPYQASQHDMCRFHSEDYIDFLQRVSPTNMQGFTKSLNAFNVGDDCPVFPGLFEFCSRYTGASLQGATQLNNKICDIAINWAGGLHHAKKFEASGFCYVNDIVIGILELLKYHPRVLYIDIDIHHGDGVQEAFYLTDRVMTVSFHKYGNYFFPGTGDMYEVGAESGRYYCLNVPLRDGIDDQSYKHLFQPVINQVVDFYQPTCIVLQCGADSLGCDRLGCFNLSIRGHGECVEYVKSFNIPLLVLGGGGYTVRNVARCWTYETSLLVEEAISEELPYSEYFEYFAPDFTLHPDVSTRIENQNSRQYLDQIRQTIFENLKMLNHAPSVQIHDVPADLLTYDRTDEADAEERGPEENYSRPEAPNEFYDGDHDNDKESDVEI
Chain of Class 1 histone deacetylase (Homo sapiens) (Q13547 whole entry, looked up, one chain of several): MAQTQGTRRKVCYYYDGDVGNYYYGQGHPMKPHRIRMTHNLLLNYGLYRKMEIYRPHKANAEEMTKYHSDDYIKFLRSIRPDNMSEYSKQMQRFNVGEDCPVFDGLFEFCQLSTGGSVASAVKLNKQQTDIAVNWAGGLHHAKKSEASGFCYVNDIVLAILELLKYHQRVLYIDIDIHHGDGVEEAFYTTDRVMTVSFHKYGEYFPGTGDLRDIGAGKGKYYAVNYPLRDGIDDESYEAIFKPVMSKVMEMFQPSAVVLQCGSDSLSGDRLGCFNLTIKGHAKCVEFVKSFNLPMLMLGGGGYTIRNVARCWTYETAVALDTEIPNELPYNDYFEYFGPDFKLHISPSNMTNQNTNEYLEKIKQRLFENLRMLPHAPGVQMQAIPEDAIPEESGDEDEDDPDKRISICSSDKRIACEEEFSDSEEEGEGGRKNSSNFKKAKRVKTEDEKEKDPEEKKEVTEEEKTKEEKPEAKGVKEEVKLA
Chain of Class 1 histone deacetylase (Homo sapiens) (Q92769 whole entry, looked up, one chain of several): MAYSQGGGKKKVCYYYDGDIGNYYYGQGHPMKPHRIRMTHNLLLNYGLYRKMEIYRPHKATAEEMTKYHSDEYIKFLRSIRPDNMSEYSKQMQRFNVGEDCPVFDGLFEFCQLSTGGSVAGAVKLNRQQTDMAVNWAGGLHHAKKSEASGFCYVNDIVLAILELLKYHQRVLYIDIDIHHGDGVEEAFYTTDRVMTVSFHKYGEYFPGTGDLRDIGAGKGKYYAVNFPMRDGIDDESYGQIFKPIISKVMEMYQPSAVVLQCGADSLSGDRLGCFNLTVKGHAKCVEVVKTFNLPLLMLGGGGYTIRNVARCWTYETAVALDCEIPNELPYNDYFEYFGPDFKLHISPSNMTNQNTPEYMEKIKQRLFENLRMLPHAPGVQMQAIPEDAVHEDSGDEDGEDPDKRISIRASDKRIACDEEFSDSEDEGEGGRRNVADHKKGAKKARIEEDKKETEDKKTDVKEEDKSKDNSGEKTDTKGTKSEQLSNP
Chain of Histone deacetylase 9 (Q9UKV0 whole entry, the tested form may be a part): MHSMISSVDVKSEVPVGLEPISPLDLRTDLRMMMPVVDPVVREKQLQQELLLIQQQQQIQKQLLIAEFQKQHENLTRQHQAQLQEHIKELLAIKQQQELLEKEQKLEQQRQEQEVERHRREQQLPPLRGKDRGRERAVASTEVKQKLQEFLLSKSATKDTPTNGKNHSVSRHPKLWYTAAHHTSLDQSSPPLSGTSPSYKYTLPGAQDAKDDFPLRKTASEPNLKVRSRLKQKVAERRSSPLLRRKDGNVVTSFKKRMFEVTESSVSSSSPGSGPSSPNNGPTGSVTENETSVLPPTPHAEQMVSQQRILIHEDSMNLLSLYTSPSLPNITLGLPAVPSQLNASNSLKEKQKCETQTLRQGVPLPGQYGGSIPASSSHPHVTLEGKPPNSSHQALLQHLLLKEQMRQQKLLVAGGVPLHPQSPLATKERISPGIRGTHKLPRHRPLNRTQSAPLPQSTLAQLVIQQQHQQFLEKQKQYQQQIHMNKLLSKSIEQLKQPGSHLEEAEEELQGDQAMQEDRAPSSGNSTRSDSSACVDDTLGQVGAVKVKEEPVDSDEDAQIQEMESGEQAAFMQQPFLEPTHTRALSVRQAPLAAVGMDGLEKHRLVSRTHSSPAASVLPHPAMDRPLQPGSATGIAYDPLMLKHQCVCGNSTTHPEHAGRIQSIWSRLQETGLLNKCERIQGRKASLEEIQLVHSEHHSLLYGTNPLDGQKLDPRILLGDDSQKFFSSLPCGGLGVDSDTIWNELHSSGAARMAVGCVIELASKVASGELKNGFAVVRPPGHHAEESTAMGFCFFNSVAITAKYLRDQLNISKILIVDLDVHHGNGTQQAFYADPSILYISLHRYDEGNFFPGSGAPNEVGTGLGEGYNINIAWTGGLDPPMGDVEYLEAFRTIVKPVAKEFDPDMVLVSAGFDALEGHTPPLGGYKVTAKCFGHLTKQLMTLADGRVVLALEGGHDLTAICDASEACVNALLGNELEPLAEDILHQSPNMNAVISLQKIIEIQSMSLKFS

As a reminder, the IC50 is the concentration that gives 50% inhibition. The TGI is how far tumour growth fell short of that in controls. As usually defined, the half-life is the time needed for the level to fall by half in the phase considered. For `O=C(NO)c1ccc(COc2no[n+]([O-])c2S(=O)(=O)c2ccccc2)cc1`, the IC50 was 33 nM in series [1]; 700 nM in series [2]; 170 nM in [4]; 420 nM in series [10]; 2100 nM in series [11]; above 40000 nM in series [12]. Moreover, the remaining at 1 h was 0.6% in series [3] and below 0.33% in series [6]. Also, the TGI in series [5] came out at 48%. Besides, the outcome in series [7] and in series [13] was Active. The half-life in series [8] stood at 9.2 min. Besides, the CLint scaled in [9] turned out to be 270 mL/min/kg. Besides, the fold change (FC) in series [14] is 1; in [16], 1.1. Also, in [15], the inhibition entry was “Active”.
